Experimental data published in publication PMC10902354, “Deficiency in PHD2-mediated hydroxylation of HIF2α underlies Pacak-Zhuang syndrome” (Communications Biology, 2024).

Test system: hypoxia-responsive element (HRE) reporter, HEK293A cells
Experiment: Dual-luciferase reporter assay of HIF2α transcriptional activity (VEGFA-HRE) in HEK293A cells
Assay type: cell-based
Details: for HIF2α transcriptional activity, Firefly(RLU)/Renilla(RLU) (Normalized To WT Mean): Fig. 6a, normal oxygenated conditions; for HIF2α transcriptional activity, Firefly(RLU)/Renilla(RLU) (Normalized to WT Mean): Fig. 6b; for HIF2α transcriptional activity, Firefly(RLU)/Renilla(RLU) (Normalized to WT Mean) / HRE-driven transcriptional activity (in words): normoxic conditions; for HRE-driven transcriptional activity (in words): relative to HIF2α WT or other mutant
Excerpt: The following previously described plasmids were used in this study: pcDNA3-HA-VHL30[28] and pET-46-HIS6-PHD2[4]. pGL3-VEGFA-HRE was generated by amplifying nucleotides 1271-1797 of human VEGFA CDS (AH001553.2) using primers introducing 5’ KpnI and 3’ XhoI sites; digested PCR products were subcloned into pGL3-Basic (Promega) cut with KpnI and XhoI. pRL-SV40 was obtained from Promega. pcDNA3-HA-HIF2α has been previously described. Class 1 (D539N, A530V, P531A, Y532C) and Class 2 (M535T, G537R, P534R, Y532H) HIF2α mutants, as well as mutant P405A, were generated using QuikChange site-directed mutagenesis (Agilent) and confirmed by DNA sequencing. pcDNA3-HA-HIF2α -P405A/P531A was obtained from Addgene (Addgene plasmid # 18956)[29]. The α-HA tag antibody was obtained from Cell Signaling (C29F4). HIFα-CODD peptides were custom synthesized by Genscript and supplied at ≥ 95% purity. All synthesized peptides were C-terminally amidated, peptides used for MST binding studies and crystallography were N-terminally acetylated and peptides used for the indirect hydroxylation assays were N-terminally biotinylated. For crystallography and MST experiments peptides were dissolved directly into 50 mM Tris pH 8.0 buffer and for indirect hydroxylation assays N-terminally biotinylated peptides were initially dissolved in DMSO to create stock solutions and further diluted into aqueous buffers for immobilization on streptavidin agarose beads. The sequences of each peptide can be found in Supplementary Table 1.
HEK293A cells were maintained in DMEM (Wisent #319-015) supplemented with 10% (v/v) Fetal Bovine Serum (FBS, Wisent #098-150) in a humidified atmosphere at 37 °C and 5% CO2. Transfection complexes containing 2 μg of total DNA (0.8 ug pcDNA3-HA, 0.9 μg pGL3-VEGFa-HRE, 0.1 μg pRL-SV40, and 0.2 μg of either pcDNA3-HA-HIF2α-WT or mutant) and 8 ug Polyethyleneimine pH 7.2 (Polysciences, Cat #23966) in 400 μl OptiMEM™ Reduced Serum Medium (Gibco #31985070) were incubated for 15 min at room temperature, then were added to 5 × 10^5 HEK293A cells (diluted in 400 μl OptiMEM™) and incubated for an additional 5 min. Mixture was plated in six-well plates containing 2 ml complete medium and incubated at 37 °C, 5% CO2 for 24 h. Firefly luciferase and Renilla luciferase activity were measured with the Dual-Luciferase Reporter Assay System (Promega #E1960) according to the manufacturer’s instructions. Measurements (1 s) were recorded using a Varioskan Lux microplate reader (Thermo Fisher Scientific). For each sample, firefly RLU values were divided by corresponding Renilla RLU values.

Substance | HIF2α transcriptional activity, Firefly(RLU)/Renilla(RLU) (Normalized To WT Mean) (Exp 1, 24 h) | HIF2α transcriptional activity, Firefly(RLU)/Renilla(RLU) (Normalized To WT Mean) (Exp 2, 24 h) | HIF2α transcriptional activity, Firefly(RLU)/Renilla(RLU) (Normalized To WT Mean) (Exp 3, 24 h) | HIF2α transcriptional activity, Firefly(RLU)/Renilla(RLU) (Normalized To WT Mean) (Exp 4, 24 h) | HIF2α transcriptional activity, Firefly(RLU)/Renilla(RLU) (Normalized To WT Mean) (Exp 5, 24 h) | HIF2α transcriptional activity, Firefly(RLU)/Renilla(RLU) (Normalized To WT Mean) (mean of Exp 1-5, 24 h) | HIF2α transcriptional activity, Firefly(RLU)/Renilla(RLU) (Normalized to WT Mean) (Exp 1, 24 h) | HIF2α transcriptional activity, Firefly(RLU)/Renilla(RLU) (Normalized to WT Mean) (Exp 2, 24 h) | HIF2α transcriptional activity, Firefly(RLU)/Renilla(RLU) (Normalized to WT Mean) (Exp3, 24 h) | HIF2α transcriptional activity, Firefly(RLU)/Renilla(RLU) (Normalized to WT Mean) (mean of Exp 1-3, 24 h) | HRE-driven transcriptional activity (in words) (listed as P405A mutant) | HRE-driven transcriptional activity (in words) (listed as P405A mutation) | HRE-driven transcriptional activity (in words) (listed as HIF2αP405A/P531A)
HIF2a-M535T: Class 2 HIF2α mutant expressed from plasmid in HEK293A cells | 1.412 | 1.394 | 0.5168 | 1.444 | 0.9762 | 1.149 |  |  |  |  |  |  | 
HIF2a-WT: HA-HIF2α WT expressed from pcDNA3-HA-HIF2α in HEK293A cells | 1.095 | 1.349 | 0.5003 | 1.339 | 0.7176 | 1 | 0.6881 | 1.449 | 0.8624 | 1 |  |  | 
HIF2a-A530V: Class 1 HIF2α mutant expressed from plasmid in HEK293A cells | 2.033 | 1.3534 | 1.897 | 3.054 | 1.561 | 1.98 |  |  |  |  |  |  | 
HIF2a-P405A: HIF2α NODD site mutant expressed from plasmid in HEK293A cells |  |  |  |  |  |  | 0.6521 | 1.374 | 0.7703 | 0.9323 | transcriptional activity comparable to wild-type HIF2α | no significant increase in HIF2α transcriptional activation activity | 
HIF2a-G537R: Class 2 HIF2α mutant expressed from plasmid in HEK293A cells | 1.297 | 1.639 | 0.7606 | 1.668 | 0.917 | 1.256 |  |  |  |  |  |  | 
HIF2a-D539N: Class 1 HIF2α mutant expressed from plasmid in HEK293A cells | 2.166 | 1.679 | 1.625 | 2.569 | 1.2135 | 1.85 |  |  |  |  |  |  | 
HIF2a-Y532C: Class 1 HIF2α mutant expressed from plasmid in HEK293A cells | 1.579 | 1.687 | 2.039 | 3.004 | 1.351 | 1.932 |  |  |  |  |  |  | 
HIF2a-P531A: Class 1 HIF2α mutant (CODD site mutant) expressed from plasmid in HEK293A cells | 2.696 | 2.508 | 2.211 | 4.182 | 1.7617 | 2.672 | 2.003 | 3.782 | 2.069 | 2.618 |  |  | 
HIF2a-P405A/P531A: HIF2α NODD and CODD site double mutant (Addgene plasmid 18956) |  |  |  |  |  |  | 1.594 | 4.627 | 2.493 | 2.905 |  |  | indistinguishable transcriptional activity from HIF2αP531A single mutant
HIF2a-P534R: Class 2 HIF2α mutant expressed from plasmid in HEK293A cells | 1.1133 | 1.547 | 1.102 | 1.425 | 0.8617 | 1.21 |  |  |  |  |  |  | 
HIF2a-Y532H: Class 2 HIF2α mutant expressed from plasmid in HEK293A cells | 1.505 | 1.636 | 0.8256 | 1.673 | 0.9402 | 1.316 |  |  |  |  |  |  | 
